The values below come from patent US11623919B2, “Heterocyclic P2X7 antagonists” (AXXAM S.P.A., priority 2017, dated 2023).

Holding throughout (test): Screen Quest Fluo-8 No Wash Calcium Assay (Bz-ATP evoked Ca2+ influx, FLIPR)
Common to all, as to assay type: cell-based

Test [1] concerns the target T1, P2X7 receptor (Mus musculus, UniProt Q9Z1M0).
T1 construct: mP2X7 (IC50; nM); other: mP2X7; HEK-293 cells stably transfected with P2X7 receptor, Bz-ATP at EC80, Fluo-8 NW; potency
T1 sequence (Q9Z1M0 1-595): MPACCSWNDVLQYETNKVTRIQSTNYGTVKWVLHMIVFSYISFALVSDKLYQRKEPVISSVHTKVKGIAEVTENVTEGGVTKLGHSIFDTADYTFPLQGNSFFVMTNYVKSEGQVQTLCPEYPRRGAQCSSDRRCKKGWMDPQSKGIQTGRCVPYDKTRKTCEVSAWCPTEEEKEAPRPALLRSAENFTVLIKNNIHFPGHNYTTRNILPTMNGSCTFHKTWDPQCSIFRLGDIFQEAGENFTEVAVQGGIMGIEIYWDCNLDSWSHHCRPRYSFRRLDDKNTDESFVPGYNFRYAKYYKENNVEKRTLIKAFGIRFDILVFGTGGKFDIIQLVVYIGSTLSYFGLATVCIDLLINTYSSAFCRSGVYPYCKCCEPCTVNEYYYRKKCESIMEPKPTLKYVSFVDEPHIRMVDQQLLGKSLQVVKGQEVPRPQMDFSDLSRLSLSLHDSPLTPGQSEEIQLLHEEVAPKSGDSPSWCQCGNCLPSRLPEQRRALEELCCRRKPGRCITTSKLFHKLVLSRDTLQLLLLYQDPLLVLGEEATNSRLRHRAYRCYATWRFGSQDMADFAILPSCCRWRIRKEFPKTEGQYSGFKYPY
As to conditions: mP2X7; HEK-293 cells stably transfected with P2X7 receptor, Bz-ATP at EC80, Fluo-8 NW; potency ranges A-D. An outline of the steps: (§1)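 Compounds were added to Fluo-8-loaded P2X7-transfected HEK-293 cells 5 min before an EC80 Bz-ATP challenge, and Ca2+ influx was then recorded for 3 min. Buffer held 0.3 mM Ca2+ and no Mg2+. Inhibition was normalised to A438079, giving IC50 values.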

For test [2], the target named is T2, P2X7 receptor (Rattus norvegicus, UniProt Q64663).
T2 construct: rP2X7 (IC50; nM); other: rP2X7; HEK-293 cells stably transfected with P2X7 receptor, Bz-ATP at EC80, Fluo-8 NW; potency
T2 sequence (Q64663 1-595): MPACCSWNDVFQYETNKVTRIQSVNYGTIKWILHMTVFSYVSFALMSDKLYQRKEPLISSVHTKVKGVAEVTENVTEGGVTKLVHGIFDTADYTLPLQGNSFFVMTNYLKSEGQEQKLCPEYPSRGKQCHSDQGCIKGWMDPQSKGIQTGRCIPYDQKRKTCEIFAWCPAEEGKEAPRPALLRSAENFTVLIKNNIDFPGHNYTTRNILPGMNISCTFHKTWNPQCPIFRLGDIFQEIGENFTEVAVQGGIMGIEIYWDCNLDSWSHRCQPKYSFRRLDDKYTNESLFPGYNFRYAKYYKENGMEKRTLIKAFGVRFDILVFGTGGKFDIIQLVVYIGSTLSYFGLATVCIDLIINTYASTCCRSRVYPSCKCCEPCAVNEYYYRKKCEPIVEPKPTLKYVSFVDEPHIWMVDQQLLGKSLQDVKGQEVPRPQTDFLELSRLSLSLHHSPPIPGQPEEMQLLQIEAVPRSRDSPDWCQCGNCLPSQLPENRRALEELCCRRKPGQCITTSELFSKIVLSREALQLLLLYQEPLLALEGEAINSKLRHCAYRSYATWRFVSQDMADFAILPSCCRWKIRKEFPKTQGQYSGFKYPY
Conditions: rP2X7; HEK-293 cells stably transfected with P2X7 receptor, Bz-ATP at EC80, Fluo-8 NW; potency ranges A-D. The method in brief:
as §1

The target in test [3] is T3, P2X7 receptor (Homo sapiens, UniProt Q99572).
T3 sequence (Q99572 1-595): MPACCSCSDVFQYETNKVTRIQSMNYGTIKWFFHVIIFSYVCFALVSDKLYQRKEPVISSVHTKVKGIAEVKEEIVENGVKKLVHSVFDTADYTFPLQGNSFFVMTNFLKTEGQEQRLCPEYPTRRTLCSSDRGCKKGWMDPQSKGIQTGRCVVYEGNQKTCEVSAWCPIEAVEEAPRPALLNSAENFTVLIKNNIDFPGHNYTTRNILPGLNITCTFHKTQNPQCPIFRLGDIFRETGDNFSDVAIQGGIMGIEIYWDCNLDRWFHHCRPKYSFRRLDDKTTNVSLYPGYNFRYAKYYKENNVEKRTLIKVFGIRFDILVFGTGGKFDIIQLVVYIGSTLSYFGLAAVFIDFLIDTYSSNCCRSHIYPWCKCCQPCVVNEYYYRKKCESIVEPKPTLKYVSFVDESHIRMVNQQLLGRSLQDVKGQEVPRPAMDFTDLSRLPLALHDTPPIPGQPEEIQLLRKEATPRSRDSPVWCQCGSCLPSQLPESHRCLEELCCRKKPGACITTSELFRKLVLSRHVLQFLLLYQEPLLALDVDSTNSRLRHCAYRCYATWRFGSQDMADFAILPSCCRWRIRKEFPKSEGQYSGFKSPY
Details: hP2X7 (IC50; nM); other: hP2X7; HEK-293 cells stably transfected with P2X7 receptor, Bz-ATP at EC80, Fluo-8 NW; potency. Conditions: hP2X7; HEK-293 cells stably transfected with P2X7 receptor, Bz-ATP at EC80, Fluo-8 NW; potency ranges A-D. The method in brief:
as §1

What is called IC50 is the point on the concentration scale where inhibition reaches its midpoint. For the molecule `COc1ccc(Cn2c(Cc3ccc(F)cc3)noc2=O)c(OC)c1` [Example 2, 4-[(2,4-dimethoxyphenyl)methyl]-3-[(4-fluorophenyl)methyl]-4,5-dihydro-1,2,4-oxadiazol-5-one], the IC50 on P2X7 receptor [1] is > 10000 nM; at P2X7 receptor [2], > 10000 nM; on P2X7 receptor [3], 1000 to 10000 nM.

`O=c1onc(Cc2ccc(F)cc2)n1Cc1ccc(F)cc1Cl` [Example 51, 4-[(2-chloro-4-fluorophenyl)methyl]-3-[(4-fluorophenyl)methyl]-4,5-dihydro-1,2,4-oxadiazol-5-one]: the IC50 on P2X7 receptor [1], on P2X7 receptor [2] and at P2X7 receptor [3] was 1000 to 10000 nM in each case.

Take `O=c1onc(Cc2ccc(F)cc2)n1Cc1cccc(C(F)(F)F)c1Cl` [Example 52, 4-{[2-chloro-3-(trifluoromethyl)phenyl]methyl}-3-[(4-fluorophenyl)methyl]-4,5-dihydro-1,2,4-oxadiazol-5-one]: the IC50 on P2X7 receptor [1], on P2X7 receptor [2] and on P2X7 receptor [3] was > 10000 nM in each case.

`O=c1onc(Cc2cccnc2)n1CC1CCCCC1` [Example 123, 4-(cyclohexylmethyl)-3-(pyridin-3-ylmethyl)-4,5-dihydro-1,2,4-oxadiazol-5-one]: the IC50 on P2X7 receptor [1], at P2X7 receptor [2] and on P2X7 receptor [3] was 1000 to 10000 nM in each case.

Consider `CCOCn1c(Cc2c(F)cccc2Cl)noc1=O` [Example 101, 3-[(2-chloro-6-fluorophenyl)methyl]-4-(ethoxymethyl)-4,5-dihydro-1,2,4-oxadiazol-5-one], for which the half-maximal inhibitory concentration (IC50) on P2X7 receptor [1], on P2X7 receptor [2] and on P2X7 receptor [3] was > 10000 nM in each case.

Regarding `O=c1onc(CCc2c(F)cccc2Cl)n1Cc1c(F)cccc1Cl` [Example 144, 4-(2-chloro-6-fluorobenzyl)-3-[2-(2-chloro-6-fluorophenyl)ethyl]-1,2,4-oxadiazol-5(4H)-one], the IC50 was 1000 to 10000 nM on P2X7 receptor [1], 200 to 1000 nM on P2X7 receptor [2] and 200 to 1000 nM at P2X7 receptor [3].

On to `Cc1noc(C)c1Cc1noc(=O)n1Cc1ccc(F)cc1` [Example 208, 3-[(dimethyl-1,2-oxazol-4-yl)methyl]-4-[(4-fluorophenyl)methyl]-4,5-dihydro-1,2,4-oxadiazol-5-one], for which the IC50 at P2X7 receptor [1] is > 10000 nM; at P2X7 receptor [2], 1000 to 10000 nM; on P2X7 receptor [3] it was 1000 to 10000 nM.

For the molecule `Cn1ccnc1Cn1c(CC2CCC(F)(F)CC2)noc1=O` [Example 201, 3-[(4,4-difluorocyclohexyl)methyl]-4-[(1-methyl-1H-imidazol-2-yl)methyl]-4,5-dihydro-1,2,4-oxadiazol-5-one], the IC50 at P2X7 receptor [1] was > 10000 nM; at P2X7 receptor [2], 1000 to 10000 nM; at P2X7 receptor [3] it was > 10000 nM.

`COc1cccc(Cc2noc(=O)n2Cc2ccc(F)cc2)c1` [Example 109, 4-[(4-fluorophenyl)methyl]-3-[(3-methoxyphenyl)methyl]-4,5-dihydro-1,2,4-oxadiazol-5-one]: the results for the IC50 on P2X7 receptor [1], on P2X7 receptor [2] and at P2X7 receptor [3] were > 10000 nM, 1000 to 10000 nM and 1000 to 10000 nM, respectively.

For `O=c1onc(Cc2ccccc2F)n1CC1CCC(F)(F)CC1` [Example 150, 4-[(4,4-difluorocyclohexyl)methyl]-3-[(2-fluorophenyl)methyl]-4,5-dihydro-1,2,4-oxadiazol-5-one], the IC50 at P2X7 receptor [1] is 200 to 1000 nM; at P2X7 receptor [2] it was < 200 nM; on P2X7 receptor [3], 200 to 1000 nM.

Consider `CC(C)(c1c(F)cccc1Cl)c1noc(=O)n1Cc1ccc(F)cc1` [Example 77, 3-[2-(2-chloro-6-fluorophenyl)propan-2-yl]-4-[(4-fluorophenyl)methyl]-4,5-dihydro-1,2,4-oxadiazol-5-one], for which the IC50 on P2X7 receptor [1], at P2X7 receptor [2] and at P2X7 receptor [3] was > 10000 nM each time.

Regarding `Cc1ccccc1Cn1c(Cc2c(F)cccc2Cl)noc1=O` [Example 27, 3-[(2-chloro-6-fluorophenyl)methyl]-4-[(2-methylphenyl)methyl]-4,5-dihydro-1,2,4-oxadiazol-5-one], the IC50 at P2X7 receptor [1], on P2X7 receptor [2] and at P2X7 receptor [3] was 1000 to 10000 nM each time.

As to `O=c1onc(Cc2ccc(F)cc2F)n1CC1CCC(F)(F)CC1` [Example 153, 4-[(4,4-difluorocyclohexyl)methyl]-3-[(2,4-difluorophenyl)methyl]-4,5-dihydro-1,2,4-oxadiazol-5-one], the IC50 was 200 to 1000 nM on P2X7 receptor [1], < 200 nM at P2X7 receptor [2] and < 200 nM at P2X7 receptor [3].

Regarding `O=c1onc(CC2CCC(F)(F)CC2)n1Cc1ncco1` [Example 194, 3-[(4,4-difluorocyclohexyl)methyl]-4-[(1,3-oxazol-2-yl)methyl]-1,2,4-oxadiazol-5(4H)-one], the figures for the IC50 on P2X7 receptor [1], on P2X7 receptor [2] and at P2X7 receptor [3] were > 10000 nM, 1000 to 10000 nM and 1000 to 10000 nM, respectively.

Regarding `CCn1c(Cc2c(F)cccc2Cl)noc1=O` [Example 175, 3-[(2-chloro-6-fluorophenyl)methyl]-4-ethyl-4,5-dihydro-1,2,4-oxadiazol-5-one], the IC50 at P2X7 receptor [1], on P2X7 receptor [2] and at P2X7 receptor [3] was > 10000 nM throughout.

Regarding `O=c1onc(Cc2c(F)cccc2Cl)n1CC1COCCO1` (stereo not drawn) [Example 98, 3-[(2-chloro-6-fluorophenyl)methyl]-4-(1,4-dioxan-2-ylmethyl)-4,5-dihydro-1,2,4-oxadiazol-5-one], the IC50 is > 10000 nM on P2X7 receptor [1], 1000 to 10000 nM at P2X7 receptor [2] and > 10000 nM on P2X7 receptor [3].

As to `O=c1onc(C(O)c2cccc(C(F)(F)F)c2Cl)n1Cc1c(F)cccc1Cl` (stereo not drawn) [Example 135, 3-{[2-chloro-3-(trifluoromethyl)phenyl](hydroxy)methyl}-4-[(2-chloro-6-fluorophenyl)methyl]-4,5-dihydro-1,2,4-oxadiazol-5-one], the IC50 at P2X7 receptor [1] was > 10000 nM; on P2X7 receptor [2], > 10000 nM; at P2X7 receptor [3] it was 200 to 1000 nM.

Consider `O=c1onc(Cc2ccccc2)n1CC1CCCCC1` [Example 126, 3-benzyl-4-(cyclohexylmethyl)-4,5-dihydro-1,2,4-oxadiazol-5-one], for which the figures for the IC50 at P2X7 receptor [1], at P2X7 receptor [2] and at P2X7 receptor [3] were 1000 to 10000 nM, 200 to 1000 nM and 1000 to 10000 nM, respectively.

For the molecule `CC(c1ccc(F)cc1)n1c(CC2CCCCC2)noc1=O` (stereo not drawn) [Example 163, 3-(cyclohexylmethyl)-4-[1-(4-fluorophenyl)ethyl]-4,5-dihydro-1,2,4-oxadiazol-5-one], the IC50 on P2X7 receptor [1], at P2X7 receptor [2] and at P2X7 receptor [3] was 1000 to 10000 nM in each case.
